# Results reported in ChEMBL document CHEMBL1150756, “Isolation of an anti-inflammatory principle from the fruit juice of Ecballium elaterium” (J Nat Prod, 1988).
# Assays:
# [1] = Toxicity in po dosed dd mouse; type: organism-based; settings: in vivo
# Mus musculus = assay: Antiinflammatory activity in po dosed dd mouse assessed as inhibition of acetic acid-induced vascular permeability administered 30 mins before acetic acid challenge measured after 20 mins; type: functional
SMILES,LD50 [1] [mg/kg],ED50 (Mus musculus) [mg/kg]
CC(=O)OC(C)(C)/C=C/C(=O)[C@](C)(O)[C@H]1[C@H](O)C[C@@]2(C)[C@@H]3CC=C4[C@@H](C[C@H](O)C(=O)C4(C)C)[C@]3(C)C(=O)C[C@]12C [CUCURBITACIN B],10.9,
CC(=O)OC(C)(C)/C=C/C(=O)[C@](C)(O)[C@H]1[C@H](O)C[C@@]2(C)[C@@H]3CC=C4[C@H](C[C@H](O)C(=O)C4(C)C)[C@]3(C)C(=O)C[C@]12C [CUCURBITACIN B],,6.1
